Reference: ChEMBL document CHEMBL6177930, “2-(4-Bromobenzyl) tethered 4-amino aryl/alkyl-5,6,7,8-tetrahydrobenzo[4,5]thieno[2,3-d]pyrimidines: design, synthesis, anticancer assessment via dual topoisomerase-I/II inhibition, and in silico studies” (RSC Med Chem, 2025)
pIC50: −log10 of the molar value. Calls of active or inactive are those of the source. The rule behind the calls is not given here.

Key:
MCF7 [1] = experiment: Inhibition of oxidative stress in human MCF7 cells assessed as reduction in ROS production incubated for 24 hrs by DCFH-DA staining based flow cytometry analysis; type: functional, cell-based
[2] = molecular target: T1, Prostaglandin G/H synthase 1 (Ovis aries) (UniProt P05979); experiment: Inhibition of ovine COX-1 at 10 uM relative to control
T1 sequence (whole entry): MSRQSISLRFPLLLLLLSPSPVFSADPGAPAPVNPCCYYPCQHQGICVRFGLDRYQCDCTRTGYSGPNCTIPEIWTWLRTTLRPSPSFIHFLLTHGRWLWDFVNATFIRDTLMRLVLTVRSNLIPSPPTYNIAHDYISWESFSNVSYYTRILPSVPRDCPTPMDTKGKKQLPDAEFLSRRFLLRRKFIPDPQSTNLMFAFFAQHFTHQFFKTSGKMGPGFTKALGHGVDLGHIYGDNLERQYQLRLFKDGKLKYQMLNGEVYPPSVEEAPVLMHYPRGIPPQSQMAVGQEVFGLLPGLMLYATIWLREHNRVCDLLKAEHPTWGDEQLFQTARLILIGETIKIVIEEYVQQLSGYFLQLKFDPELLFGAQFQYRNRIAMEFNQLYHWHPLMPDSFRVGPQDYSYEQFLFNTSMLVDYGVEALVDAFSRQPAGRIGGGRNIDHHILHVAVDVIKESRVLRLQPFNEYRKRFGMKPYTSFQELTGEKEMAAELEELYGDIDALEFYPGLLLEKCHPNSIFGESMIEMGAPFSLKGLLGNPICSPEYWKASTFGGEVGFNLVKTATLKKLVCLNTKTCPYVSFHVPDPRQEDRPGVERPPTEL

FaDu [3] = experiment: Upregulation of cleaved caspase-3 level in human FaDu cells measured after 48 hrs by Western blot analysis; type: functional, cell-based; conditions: dose 1-5 µM
FaDu [4] = experiment: Induction of morphological changes in human FaDu cells assessed as cell membrane blebbing at 2 to 5 uM incubated for 48 hrs by bright field microscope based analysis; type: functional; conditions: dose 2-5 µM
FaDu [5] = experiment: Inhibition of cell migration in human FaDu cells assessed as reduction in wound closure at 5 uM measured after 48 hrs by bright field microscopic analysis; type: functional, cell-based
FaDu [6] = experiment: Induction of apoptosis in human FaDu cells assessed as nuclear changes at 1 to 5 uM by DAPI staining based analysis; type: functional, cell-based; conditions: dose 1-5 µM
FaDu [7] = experiment: Antiproliferative activity against human FaDu cells assessed as inhibition of cell growth measured after 48 hrs by MTT assay; type: functional, cell-based
MCF7 [8] = experiment: Induction of cell cycle arrest in human MCF7 cells assessed as accumulation of cells at G2/M phase measured after 24 hrs by PI staining based flow cytometry analysis (reference value: 14.2%); type: functional
FaDu [9] = experiment: Inhibition of cell migration in human FaDu cells assessed as reduction in wound closure at 1 uM measured after 48 hrs by bright field microscopic analysis relative to control; type: functional
FaDu [10] = experiment: Inhibition of colony formation in human FaDu cells assessed as reduction in colony formation at 1 to 5 uM incubated for 48 hrs crystal violet staining based analysis (reference value: 62.58%); type: functional; conditions: dose 1-5 µM
FaDu [11] = experiment: Antiproliferative activity against human FaDu cells assessed as inhibition of cell growth at 10 uM measured after 48 to 72 hrs by MTT assay relative to control; type: functional; conditions: time 48-72 hrs
[12] = molecular target: T2, DNA topoisomerase 1 (Homo sapiens) (UniProt P11387); experiment: Inhibition of human topoisomerase-I extracted from baculovirus expression system using SC-DNA as substrate incubated for 30 mins by EtBr staining based agarose gel electrophoresis method
T2 sequence (whole entry): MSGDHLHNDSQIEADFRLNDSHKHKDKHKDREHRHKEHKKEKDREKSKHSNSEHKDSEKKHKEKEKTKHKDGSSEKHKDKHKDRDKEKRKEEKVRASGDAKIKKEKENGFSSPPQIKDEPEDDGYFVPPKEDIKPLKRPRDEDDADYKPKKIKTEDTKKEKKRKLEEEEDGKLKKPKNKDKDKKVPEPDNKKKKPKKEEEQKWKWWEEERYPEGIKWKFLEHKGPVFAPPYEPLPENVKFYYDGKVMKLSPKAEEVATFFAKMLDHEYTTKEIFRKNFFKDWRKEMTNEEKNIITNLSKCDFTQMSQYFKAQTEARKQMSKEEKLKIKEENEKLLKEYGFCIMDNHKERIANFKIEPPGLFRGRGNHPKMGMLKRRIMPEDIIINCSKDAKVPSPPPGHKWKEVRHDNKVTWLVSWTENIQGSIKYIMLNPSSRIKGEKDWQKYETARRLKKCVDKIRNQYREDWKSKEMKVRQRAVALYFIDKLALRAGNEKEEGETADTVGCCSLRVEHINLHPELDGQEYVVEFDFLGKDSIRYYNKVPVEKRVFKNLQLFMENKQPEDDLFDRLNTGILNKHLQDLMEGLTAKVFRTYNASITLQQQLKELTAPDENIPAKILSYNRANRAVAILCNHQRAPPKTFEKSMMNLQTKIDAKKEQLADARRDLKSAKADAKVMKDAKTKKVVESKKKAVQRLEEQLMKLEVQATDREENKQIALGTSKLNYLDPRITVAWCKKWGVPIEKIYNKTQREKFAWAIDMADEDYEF

FaDu [13] = experiment: Induction of apoptosis in human FaDu cells assessed as nuclear fragmentation at 1 to 5 uM by DAPI staining based analysis; type: functional, cell-based; conditions: dose 1-5 µM

Brc1ccc(Cc2nc(N3CCN(c4ccncc4)CC3)c3c4c(sc3n2)CCCC4)cc1
inhibition (MCF7 [1]): Active | inhibition [2]: 46.5% | Activity (FaDu [3]): Dose-dependent-effect | Activity (FaDu [4]): Active | inhibition (FaDu [5]): Active | Activity (FaDu [6]): Active | pIC50 (FaDu [7]): 5.51 | Activity (FaDu [7]; dose 0.5-50 µM): Dose-dependent-effect | Activity (MCF7 [8]): 52.8% | inhibition at 1 µM (FaDu [9]): 64.7% | inhibition (INH) (FaDu [10]): 19.35% | inhibition at 10 µM (FaDu [11]): 83.5% | inhibition [12]: Active; Compound Showed Potent Inhibition Activity Than Camptothecin | Activity (FaDu [13]): Active
